Assay results from patent US20240360151A1 (SANOFI, priority 2023, published 2024).

What was measured:
NLRP3 inflammasome = target: T1, NLRP3 inflammasome (Homo sapiens, UniProt Q96P20); assay: IL-1β secretion assay (NLRP3 IC50) in LPS-primed, nigericin-activated THP-1 cells, HTRF; type: cell-based; conditions: monocytic THP-1 cells; LPS 10 ng/mL 3 h priming, then compound + nigericin 10 μM 2 h; relative IC50, 10 concentrations, geometric mean
T1 construct: endogenous in cells; host or cells: THP-1 monocytic cells
T1 sequence (Q96P20 whole entry): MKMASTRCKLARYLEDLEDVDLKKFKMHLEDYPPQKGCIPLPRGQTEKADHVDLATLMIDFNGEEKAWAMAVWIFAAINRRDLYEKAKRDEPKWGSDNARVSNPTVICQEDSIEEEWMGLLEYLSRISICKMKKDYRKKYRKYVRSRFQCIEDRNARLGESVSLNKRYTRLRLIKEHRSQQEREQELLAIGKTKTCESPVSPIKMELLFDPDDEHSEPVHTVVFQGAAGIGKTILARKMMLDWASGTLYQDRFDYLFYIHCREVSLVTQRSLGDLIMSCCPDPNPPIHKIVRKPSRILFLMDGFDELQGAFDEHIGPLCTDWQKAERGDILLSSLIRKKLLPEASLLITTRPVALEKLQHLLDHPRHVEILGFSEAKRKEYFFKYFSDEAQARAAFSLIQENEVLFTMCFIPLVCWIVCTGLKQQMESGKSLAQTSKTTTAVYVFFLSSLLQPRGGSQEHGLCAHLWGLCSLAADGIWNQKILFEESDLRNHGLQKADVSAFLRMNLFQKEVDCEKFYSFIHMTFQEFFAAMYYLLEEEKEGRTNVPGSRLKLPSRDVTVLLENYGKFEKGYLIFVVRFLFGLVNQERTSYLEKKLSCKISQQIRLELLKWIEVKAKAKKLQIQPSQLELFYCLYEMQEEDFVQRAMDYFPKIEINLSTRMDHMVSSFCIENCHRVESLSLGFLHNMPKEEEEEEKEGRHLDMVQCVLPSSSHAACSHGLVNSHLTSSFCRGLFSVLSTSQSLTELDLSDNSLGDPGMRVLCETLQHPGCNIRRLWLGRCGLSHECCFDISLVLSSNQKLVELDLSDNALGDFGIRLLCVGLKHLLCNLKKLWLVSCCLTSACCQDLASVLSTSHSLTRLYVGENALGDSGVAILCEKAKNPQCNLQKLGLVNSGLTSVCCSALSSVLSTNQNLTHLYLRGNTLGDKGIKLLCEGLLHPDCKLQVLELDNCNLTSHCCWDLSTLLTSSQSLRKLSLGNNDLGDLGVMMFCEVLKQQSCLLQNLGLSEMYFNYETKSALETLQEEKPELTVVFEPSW
In short: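 IL-1β in supernatant read by HTRF after 2 h co-incubation of compound (0.1% DMSO, 10 concentrations, 1:3 series) with nigericin at 10 μM final, following 3 h LPS (10 ng/mL) priming of THP-1 monocytes at 37° C. Inhibition normalised to unactivated and no-compound controls; geometric-mean relative IC50 from 4-parameter logistic model.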

[1] = test system: NF-kB pathway (TNF-α secretion by THP-1 cells); assay: TNF-α secretion assay in LPS-stimulated THP-1 cells, Lumit immunoassay; type: cell-based, human; conditions: Homo sapiens, THP-1, 3 h, monocytic THP-1 cells, LPS 10 ng/mL, relative IC50, 10 concentrations, geometric mean
In short: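 TNF-α release was quantified directly in the cell plate by Lumit immunoassay after a 3-h, 10 ng/mL LPS trigger of compound-treated THP-1 cells (RPMI, 5% FBS). Percent inhibition versus no-compound and unstimulated controls fed a 4-parameter logistic fit over 10 concentrations, giving geometric-mean relative IC50.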

SMILES | IC50 (NLRP3 inflammasome) [µM] | IC50 [1] [µM]
CN1CC[C@@H]2OCCN(c3cc(C(F)F)c(-c4ccc(C(F)(F)F)cc4O)nn3)[C@@H]2C1 [Example 268, 2-[6-[(4aR,8aS)-6-methyl-3,4a,5,7,8,8a-hexahydro-2H-pyrido[4,3-b][1,4]oxazin-4-yl]-4-(difluoromethyl)pyridazin-3-yl]-5-(trifluoromethyl)phenol] | 0.263 | > 10
Cc1cc(N2CCO[C@@H]3CCN(C)C[C@@H]32)nnc1-c1cccc(F)c1O [Example 356, 2-[6-[(4aS,8aR)-6-methyl-3,4a,5,7,8,8a-hexahydro-2H-pyrido[4,3-b][1,4]oxazin-4-yl]-4-methyl-pyridazin-3-yl]-6-fluoro-phenol] | 0.061 | > 10
Cc1cc(C(F)(F)F)cc(O)c1-c1ccc(N2C[C@@H](CO)O[C@@H](CO)C2)nn1 [Example 178, 2-[6-[(2R,6S)-2,6-bis(hydroxymethyl)morpholin-4-yl]pyridazin-3-yl]-3-methyl-5-(trifluoromethyl)phenol] | 0.007 | > 10
CC(=O)NC[C@@H]1CCCN(c2ccc(-c3c(O)cc(Cl)cc3Cl)nn2)C1 [Example 58, N-[[(3S)-1-[6-(2,4-dichloro-6-hydroxy-phenyl)pyridazin-3-yl]-3-piperidyl]methyl]acetamide] | 0.064 | > 10
Cc1cc(C(F)(F)F)cc(O)c1-c1ccc(N2CCO[C@@H](C)C2)nn1 [Example 259, 3-methyl-2-[6-[(2S)-2-methylmorpholin-4-yl]pyridazin-3-yl]-5-(trifluoromethyl)phenol] | 0.067 | > 10
Cc1cc(C(F)F)cc(O)c1-c1ccc(N2CCO[C@H](CO)C2)nn1 [Example 134, 5-(difluoromethyl)-2-[6-[(2S)-2-(hydroxymethyl)morpholin-4-yl]pyridazin-3-yl]-3-methyl-phenol] | 0.071 | > 10
Cc1cc(C)c(-c2cc(CO)c(N3CCO[C@H](CO)C3)nn2)c(O)c1 [Example 187, 2-[5-(hydroxymethyl)-6-[(2S)-2-(hydroxymethyl)morpholin-4-yl]pyridazin-3-yl]-3,5-dimethyl-phenol] | 0.066 | > 10
Cc1cc(C(F)(F)F)cc(O)c1-c1ccc(N2CC[C@H]3CNC[C@H]32)nn1 (racemic) [Example 229, 2-[6-[rac-(3aS,6aS)-3,3a,4,5,6,6a-hexahydro-2H-pyrrolo[3,4-b]pyrrol-1-yl]pyridazin-3-yl]-3-methyl-5-(trifluoromethyl)phenol] | 0.042 | > 10
Cc1cc(Cl)cc(O)c1-c1nnc(N2CCO[C@H](CO)C2)cc1CO [Example 188, 5-chloro-2-[4-(hydroxymethyl)-6-[(2S)-2-(hydroxymethyl)morpholin-4-yl]pyridazin-3-yl]-3-methyl-phenol] | 0.414 | > 10
Cc1cc(C)c(-c2ccc(N3C[C@@H](CO)CC3=O)nn2)c(O)c1 (single isomer, unassigned) [Example 138] | 0.441 | > 10
NC[C@H]1CCN(c2ccc(-c3c(O)cc(Cl)cc3Cl)nn2)C1 [Example 25, 2-[6-[(3R)-3-(aminomethyl)pyrrolidin-1-yl]pyridazin-3-yl]-3,5-dichloro-phenol] | 0.109 | > 10
Cc1cc(C(C)C)cc(O)c1-c1ccc(N2CCO[C@H](CO)C2)nn1 [Example 274, 2-[6-[(2S)-2-(hydroxymethyl)morpholin-4-yl]pyridazin-3-yl]-5-isopropyl-3-methyl-phenol] | 0.171 | > 10
Cc1c(-c2ccc(Cl)cc2O)nnc(N2CCO[C@H](CO)C2)c1C [Example 81, 5-chloro-2-[6-[(2S)-2-(hydroxymethyl)morpholin-4-yl]-4,5-dimethyl-pyridazin-3-yl]phenol] | 0.164 | 9.8
Cc1ccc(-c2nnc(N3CCO[C@H](CO)C3)cc2C(F)F)c(O)c1 [Example 144, 2-[4-(difluoromethyl)-6-[(2S)-2-(hydroxymethyl)morpholin-4-yl]pyridazin-3-yl]-5-methyl-phenol] | 0.151 | > 10
CN1CC[C@H]2CCN(c3ccc(-c4c(O)cccc4C(F)(F)F)nn3)[C@H]2C1 (single isomer, unassigned) [Example 427] | 0.002 | > 10
Cc1cc(N2CC[C@@H]3CCN(C)C[C@@H]32)nnc1-c1ccc(C(F)(F)F)cc1O (racemic) [Example 340, 2-[4-methyl-6-[rac-(3aS,7aR)-6-methyl-3,3a,4,5,7,7a-hexahydro-2H-pyrrolo[2,3-c]pyridin-1-yl]pyridazin-3-yl]-5-(trifluoromethyl)phenol] | 0.0004 | > 10
Cc1cc(C(F)(F)F)cc(O)c1-c1ccc(N2CCO[C@@H](CNC(=O)C(C)C)C2)nn1 [Example 276, N-[[(2S)-4-[6-[2-hydroxy-6-methyl-4-(trifluoromethyl)phenyl]pyridazin-3-yl]morpholin-2-yl]methyl]-2-methylpropanamide] | 0.515 | > 10
Cc1cc(C)c(-c2ccc(N3C[C@@H](N)CC3=O)nn2)c(O)c1 [Example 131, (4S)-4-amino-1-[6-(2-hydroxy-4,6-dimethyl-phenyl)pyridazin-3-yl]pyrrolidin-2-one] | 0.387 | > 10

Further lines, results first:

IC50 (NLRP3 inflammasome) [µM] | IC50 [1] [µM] | SMILES
0.164 | > 10 | Cc1cc(C)c(-c2ccc(N3CCO[C@H](CCO)C3)nn2)c(O)c1 (single isomer, unassigned) [Example 233]
0.18 | > 10 | Cc1cc(C(F)(F)F)cc(O)c1-c1ccc(N2CCO[C@@H]3CCN(C)C[C@@H]32)nn1 (single isomer, unassigned) [Example 260]
0.002 | > 10 | Cc1cc(C)c(-c2ccc(N3CC[C@@H]4CCN(C)C[C@@H]43)nn2)c(O)c1 (racemic) [Example 342, 3,5-dimethyl-2-[6-[rac-(3aS,7aR)-6-methyl-3,3a,4,5,7,7a-hexahydro-2H-pyrrolo[2,3-c]pyridin-1-yl]pyridazin-3-yl]phenol]
0.149 | > 10 | Cc1cc(C)c(-c2ccc(N3CCC(CO)C3=O)nn2)c(O)c1 (stereo not drawn) [Example 122, 1-[6-(2-hydroxy-4,6-dimethyl-phenyl)pyridazin-3-yl]-3-(hydroxymethyl) pyrrolidin-2-one]
0.005 | > 10 | CCc1cccc(O)c1-c1ccc(N2CCO[C@@H]3CCN(C(C)C)C[C@@H]32)nn1 [Example 432, 2-[6-[(4aS,8aR)-6-isopropyl-3,4a,5,7,8,8a-hexahydro-2H-pyrido[4,3-b][1,4]oxazin-4-yl]pyridazin-3-yl]-3-ethyl-phenol]
0.048 | > 10 | CC(=O)N1CC[C@H]2OCCN(c3cc(C)c(-c4ccc(Cl)cc4O)nn3)[C@H]2C1 [Example 357, 1-[(4aS,8aR)-4-[6-(4-chloro-2-hydroxy-phenyl)-5-methyl-pyridazin-3-yl]-3,4a,5,7,8,8a-hexahydro-2H-pyrido[4,3-b][1,4]oxazin-6-yl]ethanone]
0.002 | > 10 | Cc1cc(C(F)(F)F)cc(O)c1-c1ccc(N2CCO[C@@H]3CCN(C4CCC4)C[C@@H]32)nn1 (single isomer, unassigned) [Example 13]
0.249 | > 10 | CCN1CC[C@@H]2OCCN(c3ccc(-c4c(C)cc(C(F)(F)F)cc4O)nn3)[C@@H]2C1 (single isomer, unassigned) [Example 255]
0.002 | > 10 | CCN1CC[C@@H]2OCCN(c3ccc(-c4c(C)cc(C)cc4O)nn3)[C@@H]2C1 (racemic) [Example 209, 2-[6-[rac-(4aR,8aS)-6-ethyl-3,4a,5,7,8,8a-hexahydro-2H-pyrido[4,3-b][1,4]oxazin-4-yl]pyridazin-3-yl]-3,5-dimethyl-phenol]
0.461 | > 10 | Cc1cc(C(F)(F)F)cc(O)c1-c1ccc(N2CCO[C@@H]3CCNC[C@@H]32)nn1 (single isomer, unassigned) [Example 252]
0.285 | 9.5 | Cc1cc(C)c(-c2ccc(N3CC[C@H](CO)C3)nn2)c(O)c1 [Example 79, 2-[6-[(3S)-3-(hydroxymethyl)pyrrolidin-1-yl]pyridazin-3-yl]-3,5-dimethyl-phenol]
0.493 | > 10 | Cc1cc(C(F)(F)F)cc(O)c1-c1ccc(N2CC[C@H]3CN(C)C[C@H]32)nn1 (single isomer, unassigned) [Example 270]
0.018 | > 10 | Cc1cc(Cl)cc(O)c1-c1ccc(N2CCO[C@H]3CCNC[C@H]32)nn1 (racemic) [Example 221, 2-[6-[rac-(4aR,8aS)-2,3,4a,5,6,7,8,8a-octahydropyrido[4,3-b][1,4]oxazin-4-yl]pyridazin-3-yl]-5-chloro-3-methyl-phenol]
0.062 | > 10 | CC(=O)N1CC[C@H]2OCCN(c3cc(C)c(-c4ccc(C)cc4O)nn3)[C@H]2C1 [Example 431, 1-[(4aS,8aR)-4-[6-(2-hydroxy-4-methyl-phenyl)-5-methyl-pyridazin-3-yl]-3,4a,5,7,8,8a-hexahydro-2H-pyrido[4,3-b][1,4]oxazin-6-yl]ethanone]
0.004 | > 10 | CCc1cc(C(F)(F)F)cc(O)c1-c1ccc(N2CCO[C@@H]3CCN(C(C)=O)C[C@@H]32)nn1 [Example 380, 1-[(4aS,8aR)-4-[6-[2-ethyl-6-hydroxy-4-(trifluoromethyl)phenyl]pyridazin-3-yl]-3,4a,5,7,8,8a-hexahydro-2H-pyrido[4,3-b][1,4]oxazin-6-yl]ethanone]
